Measurements published in publication PMC10327353 (Breast Cancer Research : BCR, 2023).
“And” between values parts separate entries of the source, which are not always exact repeats. Equal values may be shown once.

Assay: Phase 1 study: safety and tolerability
Type: in vivo
Experimental: The maximum tolerated dose (MTD) of DZD1516 was defined based on safety data and the Bayesian optimal interval (BOIN) design (Additional file 1). The definition of DLT is provided in Additional file 1.
The AE grading was assessed according to the NCI-Common Terminology Criteria for Adverse Events (CTCAE) (version 5.0) and was monitored until 28 days after the last dose.
Eligible patients received single oral dosing of DZD1516 on Cycle 0 Day 1 (C0D1), followed by a 7-day washout. Twice daily oral dosing (bid) of DZD1516 was commenced from C1D1 in a continuous 21-day cycle until disease progression, unacceptable toxicity, or withdrawal of consent. All doses were taken under fed conditions (within 30 minutes after a meal).
Planned dosing consisted of 25, 50, 100, 200, 300, and 400 mg. Each dose escalation cohort will comprise a minimum of three and a maximum of six evaluable patients (except only one patient in the starting dose cohort). The maximum tolerated dose of DZD1516 was defined according to safety data and the Bayesian optimal interval (BOIN) design. Dose escalation/de-escalation rule with target toxicity rate for the MTD is 0.30 with interval of (0.20, 0.33).
DLTs were any adverse event (AE) not clearly attributable to the patient’s disease, including ≥ grade 4 hematological toxicities present for ≥ 4 days, grade 3 thrombocytopenia with bleeding, or grade 4 thrombocytopenia lasting for > 5 days, ≥ grade 3 non-hematological toxicities that is dose-limiting in the judgment of the investigators. Any other toxicity that is greater than that at baseline, is clinically significant or unacceptable, and is judged to be a DLT by the SRC. Exceptions included alopecia of any grade and isolated grade 3 laboratory change without clinical sequelae or clinical significance.
Safety evaluations were conducted at screening, on Day 1, 8, and 15 of Cycle 1, on Day 1 of each subsequent treatment cycle, at the end-of-treatment visit, and clinically indicated. Safety assessments included clinical laboratory measurements (hematology, chemistry, coagulation, and urinalysis), electrocardiogram (ECG), Echocardiogram/MUGA scan, ECOG performance status, vital signs, and physical examinations.

COc1cc(O[C@H]2CCN(C)CC2(F)F)c2c(Nc3ccc(Oc4ccn5ncnc5c4)c(C)c3)ncnc2c1 [DZD1516]
Decreased appetite, ≥ Grade 3 (300 mg (N = 4)): 0 (0.0) n (%) | Dizziness, Any Grade (300 mg (N = 4)): 1 (25.0) n (%) | Dizziness, ≥ Grade 3 (300 mg (N = 4)): 1 (25.0) n (%) | Drug-related TEAE: Grade 3 (300 mg (N = 4)): 2 (50.0) n (%) | Drug-related TEAE: Leading to death (300 mg (N = 4)): 0 (0.0) n (%) | Drug-related TEAE: Leading to dose reduction (300 mg (N = 4)): 3 (75.0) n (%) | Drug-related TEAE: Leading to treatment discontinuation (300 mg (N = 4)): 0 (0.0) n (%) | Drug-related TEAE: Leading to treatment interruption (300 mg (N = 4)): 2 (50.0) n (%) | Drug-related TEAE: SAE (300 mg (N = 4)): 0 (0.0) n (%) | Fatigue, Any Grade (300 mg (N = 4)): 1 (25.0) n (%) | Fatigue, ≥ Grade 3 (300 mg (N = 4)): 1 (25.0) n (%) | Gastrointestinal disorders, Any Grade (300 mg (N = 4)): 4 (100.0) n (%) | Gastrointestinal disorders, ≥ Grade 3 (300 mg (N = 4)): 1 (25.0) n (%) | General disorders and administration site conditions, Any Grade (300 mg (N = 4)): 3 (75.0) n (%) | General disorders and administration site conditions, ≥ Grade 3 (300 mg (N = 4)): 2 (50.0) n (%) | Headache, Any Grade (300 mg (N = 4)): 4 (100.0) n (%) | Headache, ≥ Grade 3 (300 mg (N = 4)): 0 (0.0) n (%) | Hemoglobin decreased, Any Grade (300 mg (N = 4)): 0 (0.0) n (%) | Hemoglobin decreased, ≥ Grade 3 (300 mg (N = 4)): 0 (0.0) n (%) | Investigations, Any Grade (300 mg (N = 4)): 1 (25.0) n (%) | Investigations, ≥ Grade 3 (300 mg (N = 4)): 0 (0.0) n (%) | Lipase increased, Any Grade (300 mg (N = 4)): 0 (0.0) n (%) | Lipase increased, ≥ Grade 3 (300 mg (N = 4)): 0 (0.0) n (%) | Malaise, Any Grade (300 mg (N = 4)): 1 (25.0) n (%) | Malaise, ≥ Grade 3 (300 mg (N = 4)): 1 (25.0) n (%) | Metabolism and nutrition disorders, Any Grade (300 mg (N = 4)): 3 (75.0) n (%) | Metabolism and nutrition disorders, ≥ Grade 3 (300 mg (N = 4)): 0 (0.0) n (%) | Musculoskeletal and connective tissue disorders, Any Grade (300 mg (N = 4)): 3 (75.0) n (%) | Musculoskeletal and connective tissue disorders, ≥ Grade 3 (300 mg (N = 4)): 1 (25.0) n (%) | Nausea, Any Grade (300 mg (N = 4)): 4 (100.0) n (%) | Nausea, ≥ Grade 3 (300 mg (N = 4)): 1 (25.0) n (%) | Nervous system disorders, Any Grade (300 mg (N = 4)): 4 (100.0) n (%) | Nervous system disorders, ≥ Grade 3 (300 mg (N = 4)): 2 (50.0) n (%) | Participants with any TEAE, Any Grade (300 mg (N = 4)): 4 (100.0) n (%) | Participants with any TEAE, ≥ Grade 3 (300 mg (N = 4)): 3 (75.0) n (%) | Platelet count decreased, Any Grade (300 mg (N = 4)): 0 (0.0) n (%) | Platelet count decreased, ≥ Grade 3 (300 mg (N = 4)): 0 (0.0) n (%) | Proteinuria, Any Grade (300 mg (N = 4)): 1 (25.0) n (%) | Proteinuria, ≥ Grade 3 (300 mg (N = 4)): 0 (0.0) n (%) | Renal and urinary disorders, Any Grade (300 mg (N = 4)): 1 (25.0) n (%) | Renal and urinary disorders, ≥ Grade 3 (300 mg (N = 4)): 0 (0.0) n (%) | Subjects with any TEAE (300 mg (N = 4)): 4 (100.0) n (%) | Subjects with any drug-related TEAE (300 mg (N = 4)): 4 (100.0) n (%) | Vomiting, Any Grade (300 mg (N = 4)): 3 (75.0) n (%) | Vomiting, ≥ Grade 3 (300 mg (N = 4)): 1 (25.0) n (%) | White blood cell count decreased, Any Grade (300 mg (N = 4)): 0 (0.0) n (%) | White blood cell count decreased, ≥ Grade 3 (300 mg (N = 4)): 0 (0.0) n (%) | diarrhea (300 mg cohort): A single case of grade 2 diarrhea | dose-limiting toxicities (DLTs) (300 mg cohort): two out of four patients experienced DLTs | dose-limiting toxicity (DLT) (25–200 mg cohorts): no dose-limiting toxicity (DLT) observed | diarrhea or skin rash (MTD (250 mg) or lower doses): No diarrhea or skin rash of any grade was observed | Alanine aminotransferase increased, Any Grade (Total (N = 23)): 3 (13.0) n (%) | Alanine aminotransferase increased, ≥ Grade 3 (Total (N = 23)): 0 (0.0) n (%) | Anemia, Any Grade (Total (N = 23)): 3 (13.0) n (%) | Anemia, ≥ Grade 3 (Total (N = 23)): 0 (0.0) n (%) | Any TEAE: Grade 3 (Total (N = 23)): 6 n (%) and 6 (26.1) n (%) | Any TEAE: Leading to death (Total (N = 23)): 0 (0.0) n (%) | Any TEAE: Leading to dose reduction (Total (N = 23)): 3 n (%) and 3 (13.0) n (%) | Any TEAE: Leading to treatment discontinuation (Total (N = 23)): 1 (4.3) n (%) | Any TEAE: Leading to treatment interruption (Total (N = 23)): 5 n (%) and 5 (21.7) n (%) | Any TEAE: SAE (Total (N = 23)): 2 (8.7) n (%) | Aspartate aminotransferase increased, Any Grade (Total (N = 23)): 5 (21.7) n (%) | Aspartate aminotransferase increased, ≥ Grade 3 (Total (N = 23)): 0 (0.0) n (%) | Blood and lymphatic system disorders, Any Grade (Total (N = 23)): 3 (13.0) n (%) | Blood and lymphatic system disorders, ≥ Grade 3 (Total (N = 23)): 0 (0.0) n (%) | Blood bilirubin increased, Any Grade (Total (N = 23)): 4 (17.4) n (%) | Blood bilirubin increased, ≥ Grade 3 (Total (N = 23)): 0 (0.0) n (%) | Cardiac disorders, Any Grade (Total (N = 23)): 3 (13.0) n (%) | Cardiac disorders, ≥ Grade 3 (Total (N = 23)): 0 (0.0) n (%) | Constipation, Any Grade (Total (N = 23)): 3 (13.0) n (%) | Constipation, ≥ Grade 3 (Total (N = 23)): 0 (0.0) n (%) | Decreased appetite, Any Grade (Total (N = 23)): 4 (17.4) n (%) | Decreased appetite, ≥ Grade 3 (Total (N = 23)): 0 (0.0) n (%) | Dizziness, Any Grade (Total (N = 23)): 3 (13.0) n (%) | Dizziness, ≥ Grade 3 (Total (N = 23)): 1 (4.3) n (%) | Drug-related TEAE: Grade 3 (Total (N = 23)): 4 n (%) and 4 (17.4) n (%) | Drug-related TEAE: Leading to death (Total (N = 23)): 0 (0.0) n (%) | Drug-related TEAE: Leading to dose reduction (Total (N = 23)): 3 (13.0) n (%) | Drug-related TEAE: Leading to treatment discontinuation (Total (N = 23)): 0 (0.0) n (%) | Drug-related TEAE: Leading to treatment interruption (Total (N = 23)): 3 (13.0) n (%) | Drug-related TEAE: SAE (Total (N = 23)): 1 (4.3) n (%) | Fatigue, Any Grade (Total (N = 23)): 4 (17.4) n (%) | Fatigue, ≥ Grade 3 (Total (N = 23)): 1 (4.3) n (%) | Gastrointestinal disorders, Any Grade (Total (N = 23)): 10 (43.5) n (%) | Gastrointestinal disorders, ≥ Grade 3 (Total (N = 23)): 3 (13.0) n (%) | General disorders and administration site conditions, Any Grade (Total (N = 23)): 8 (34.8) n (%) | General disorders and administration site conditions, ≥ Grade 3 (Total (N = 23)): 2 (8.7) n (%) | Headache, Any Grade (Total (N = 23)): 10 (43.5) n (%) | Headache, ≥ Grade 3 (Total (N = 23)): 0 (0.0) n (%) | Hemoglobin decreased, Any Grade (Total (N = 23)): 7 (30.4) n (%) | Hemoglobin decreased, ≥ Grade 3 (Total (N = 23)): 0 (0.0) n (%) | Investigations, Any Grade (Total (N = 23)): 14 (60.9) n (%) | Investigations, ≥ Grade 3 (Total (N = 23)): 2 (8.7) n (%) | Lipase increased, Any Grade (Total (N = 23)): 3 (13.0) n (%) | Lipase increased, ≥ Grade 3 (Total (N = 23)): 0 (0.0) n (%) | Malaise, Any Grade (Total (N = 23)): 3 (13.0) n (%) | Malaise, ≥ Grade 3 (Total (N = 23)): 1 (4.3) n (%) | Metabolism and nutrition disorders, Any Grade (Total (N = 23)): 11 (47.8) n (%) | Metabolism and nutrition disorders, ≥ Grade 3 (Total (N = 23)): 0 (0.0) n (%) | Musculoskeletal and connective tissue disorders, Any Grade (Total (N = 23)): 7 (30.4) n (%) | Musculoskeletal and connective tissue disorders, ≥ Grade 3 (Total (N = 23)): 2 (8.7) n (%) | Nausea, Any Grade (Total (N = 23)): 6 (26.1) n (%) | Nausea, ≥ Grade 3 (Total (N = 23)): 1 (4.3) n (%) | Nervous system disorders, Any Grade (Total (N = 23)): 14 (60.9) n (%) | Nervous system disorders, ≥ Grade 3 (Total (N = 23)): 2 (8.7) n (%) | Participants with any TEAE, Any Grade (Total (N = 23)): 22 (95.7) n (%) | Participants with any TEAE, ≥ Grade 3 (Total (N = 23)): 6 (26.1) n (%) | Platelet count decreased, Any Grade (Total (N = 23)): 3 (13.0) n (%) | Platelet count decreased, ≥ Grade 3 (Total (N = 23)): 0 (0.0) n (%) | Proteinuria, Any Grade (Total (N = 23)): 4 (17.4) n (%) | Proteinuria, ≥ Grade 3 (Total (N = 23)): 0 (0.0) n (%) | Renal and urinary disorders, Any Grade (Total (N = 23)): 5 (21.7) n (%) | Renal and urinary disorders, ≥ Grade 3 (Total (N = 23)): 0 (0.0) n (%) | Subjects with any TEAE (Total (N = 23)): 22 (95.7) n (%) | Subjects with any drug-related TEAE (Total (N = 23)): 21 (91.3) n (%) | Vomiting, Any Grade (Total (N = 23)): 8 (34.8) n (%) | Vomiting, ≥ Grade 3 (Total (N = 23)): 2 (8.7) n (%) | White blood cell count decreased, Any Grade (Total (N = 23)): 3 (13.0) n (%) | White blood cell count decreased, ≥ Grade 3 (Total (N = 23)): 0 (0.0) n (%) | grade 4 or 5 AEs (all dose levels): No grade 4 or 5 AEs were reported | maximum tolerated dose (MTD) (patients, BID): 250 mg
